Experimental data as given in patent US7910579B2, “Benzoxazole derivatives” (Tohoku University, priority 2006, dated 2011).
Where two headings read alike, the source gives them in different places.

Key:
[1] = Evaluation of Brain-Penetration and Bone-Seeking Properties of the Labeled Compound in Mouse; type: in vivo; details: for Brain radioactivity / blood radioactivity / bone radioactivity: male ICR mouse, intravenous; for bone radioactivity: thighbone; for Bone-seeking property (bone accumulation) / Washout from brain: mouse; for Bone-seeking property (bone accumulation): 2 to 60 minutes after intravenous injection; for Washout from brain: compared with [^18F] BF-227
Method: Separated HPLC fractions containing [^18F] THK-702, [^18F] THK-761, [^18F] THK-763 or [^18F] BF-227 obtained by above mentioned synthesis of label were diluted with distilled water (about 20 mL), loaded thereon Sep-PaktC18 cartridge (produced by Waters Corporation). And the cartridge was washed by distilled water (5 to 10 mL), and labeled compound by EtOH (3 to 5 mL). A proper amount of 5% polysorbate 80-ethanol solution was added in the EtOH eluate and solvent was distilled away by a rotary evaporator with heating at 80° C. Obtained residue (mixture of the label compound and polysorbate 80) was dissolved in saline to prepare the labeled compound-containing saline. The radiochemical purity of chemical after the preparation was 95% or more.
Saline containing [^18F] BF-227, [^18F] THK-702, [^18F] THK-761 or [^18F] THK-763 was administered by intravenous injection through the tail vein of male ICR mouse (6 to 7 week), and brain-penetration and bone-seeking properties of each labeled compound was evaluated in the terms of seeking property of radioactivity in brain-tissue and bone tissue at 2, 30, 60 minutes after the injection.
The radiochemical purity of the saline containing the labeled compound used in the present invention was 95% or more, and the specific radioactivity was 18.5 to 148 GBq/μmol. 1.11 to 2.22 Mbq of the labeled compound per mouse was administrated. In evaluation of seeking property of radioactivity, the proportion of radioactivity in unit weight of evaluated tissue to all dosed radioactivity (% Injected Dose/g of tissue; % ID/g) was used as an index. Gamma counter (1480 WIZARD, produced by PerkinElmer, Inc.) was used in the measurement of radioactivity. Experimental procedures will be explained as follows. The labeled compound was administered by intravenous injection through the tail vein, 2, 30 and 60 minutes after the injection, cervical dislocation of the mouse was conducted under ether anesthesia, and blood was collected from heart rapidly. And then, whole brain (containing cerebellum and brain-stem) and thighbone of mouse were extracted. Moreover, radioactivity and the tissue weight of each sample were measured, the resulting data was used for calculating % ID/g.

[2] = system: histidine-requiring Salmonella typhimurium TA100 and TA98 strains; test: Mutagenicity Test (reverse mutation test); type: cell-based; details: for Relative activity (mutagenicity): irrespective of the absence or presence of S9mix; for Relative Activity in the presence of S9Mix / Relative Activity in the absence of S9Mix: reverse mutation test
Method: In view of their use, it is desirable that the compounds of the invention have no mutagenicity or have little mutagenicity to a level causing no problem. For investigating the gene mutagenesis of the compounds of the invention, herein carried out was a reverse mutation test with histidine-requiring Salmonella typhimurium TA100 and TA98 strains. Two tests were carried out. One is a test for dose determination test; and the other is for mutagenicity.
The test methods and the mutagenicity of the compounds of the invention are mentioned below. In the dose determination test, six doses of 0.160, 0.800, 4.00, 20.0, 100 and 500 μg/plate (common ratio 5) were tried.
As a result of the dose determination test, when the mutagenicity of the test compound was admitted, then the actual test for mutagenicity was carried out, using the dose capable of giving an accurate dose-reaction curve. When no mutagenicity of the test compound was admitted in the dose determination test and when the growth inhibition of the test cells was admitted therein, then the dose to present the growth inhibition was taken as the maximum dose; and when the growth inhibition was not admitted, then a dose of 5000 μg/plate was taken as the maximum dose. With that, the actual test for mutagenicity was carried out on the level of 6 doses (common ratio 2).
First, a test compound was dissolved or suspended in DMSO, then diluted in order to prepare test compound liquids having a varying concentration.
100 μl of a test compound liquid or a negative control (DMSO) solution was put into a sterilized test tube. Then, for the case in the absence of a metabolic activation system (−S9mix), 500 μl of 0.1 mol/liter sodium-phosphate buffer (pH 7.4) was added to it; and for the case in the presence of a metabolic activation system (+S9mix), 500 μl of S9mix was added to it.
Next, 100 μl of the test strain suspension that had been cultivated with shaking at 37° C. for 8 hours was added to it, and preincubated in a shaking thermostat at 37° C. for 20 minutes. After shaken, 2 ml of top agar was added to it, and the contents were mixed.
Next, the mixture was poured onto a minimal glucose agar plate medium (plate) and spread uniformly thereon, then the top agar was solidified, and the plate was transferred into a thermostat and incubated at 37° C. for 48 hours.
Then, the number of the colonies grown through reverse mutation was counted.
For counting it, […]. After area correction and miss-counting correction, the number of the colonies was computed. When the colony analyzer could not be used owing to the deposition of the test compound or the cell growth inhibition, then the number of the colonies was counted with the naked eye.
In case where the number of the colonies through reverse mutation increased two times or more that of the negative control and where the dose dependency or the reproducibility of the increase was admitted, then the tested sample was decided as positive. When the sample was is decided as positive, then the relative activity that indicates the relative comparative value of the intensity of the mutagenicity of the test compound was obtained according to the following formula: Relative Activity={(number of colonies per plate having the concentration)−(number of colonies per negative control plate)}/the value of concentration (mg/plate).

Amyloid β protein 1-40 = biological target: T1, Amyloid β protein 1-40 (Homo sapiens, UniProt P05067); test: Fluorescence Congo Red Method; type: binding; details: compound 10 μM, amyloid β protein 5 μM; for activity at 10 µM: 1 h
T1 construct: Amyloid β protein 1-40 (bought from Peptide Laboratory); purchased Peptide Laboratory
Method: Next described is a screening method for the compounds of the invention. Some of the compounds of the invention could not be screened according to a Thioflavin T method, since their fluorescence wavelength overlaps with that of Thioflavin T. For such compounds, the following novel screening method was introduced. (1) Amyloid β protein 1-40 (bought from Peptide Laboratory) was dissolved in a phosphate buffer (pH 7.4) and left at 37° C. for 4 days. (2) 50 μl of Congo red dissolved in the buffer was applied to a 96-well microplate (final concentration, 0.1, 0.3, 1 μM). (3) 100 μl of amyloid β protein was added to it (final concentration 5 μM), and left as such for 30 minutes. (4) 100 μl of a test compound dissolved in the buffer was added to it (final concentration, 10 μM, and left as such for 60 minutes. (5) Using a fluorescence microplate reader (Spectra Max 190 by Molecular Device), the sample was analyzed at the optimum exciting wavelength and the test wavelength that had been previously determined. (6) The fluorescence intensity in the presence of the test compound, amyloid β protein and Congo red is represented by A; that in the presence of the test compound and Congo red is by B; that in the presence of the test compound and amyloid β protein is by C; and that in the presence of only the test compound is by D. The β structure recognition of the test compound is computed according to the following formula: β structure recognition (%) of test compound={(A−B)/(C−D)}×100. (7) It may be said that the test compound having a higher β structure recognition percentage may have higher binding specificity to amyloid β protein.

T1 sequence (P05067 672-711): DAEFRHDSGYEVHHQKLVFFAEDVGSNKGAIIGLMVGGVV

| SMILES | Brain radioactivity ([1]; 2 min) [% ID/g] | blood radioactivity ([1]; 2 min) [% ID/g] | bone radioactivity ([1]; 2 min) [% ID/g] | Brain radioactivity ([1]; 30 min) [% ID/g] | blood radioactivity ([1]; 30 min) [% ID/g] | bone radioactivity ([1]; 30 min) [% ID/g] | Brain radioactivity ([1]; 60 min) [% ID/g] | blood radioactivity ([1]; 60 min) [% ID/g] | bone radioactivity ([1]; 60 min) [% ID/g] | Bone-seeking property (bone accumulation) [1] | Washout from brain [1] | also measured |
| --- | --- | --- | --- | --- | --- | --- | --- | --- | --- | --- | --- | --- |
| CN(C)c1ncc(C=Cc2nc3ccc(OCCF)cc3o2)s1 [[^18F]BF-227, 2-[2-(2-dimethylaminothiazol-5-yl)ethenyl]-6-(2-fluoroethoxy)benzoxazol, reference compound] | 6.05 | 2.93 | 1.59 | 1.91 | 2.14 | 4.38 | 1.67 | 2.09 | 7.04 | significant time-dependent bone-seeking property after the injection has been found | – | – |
| N#CC(C#N)=Cc1ncc(/C=C/c2nc3ccc(OCC(CO)CF)cc3o2)s1 (stereo not shown) [THK-683, (E)-2-[2-(2,2-dicyano-ethenylthiazol-5-yl)ethenyl]-6-[(2-fluoromethyl-3-hydoxy)propoxy]benzoxazole] | – | – | – | – | – | – | – | – | – | – | – | Relative activity (mutagenicity) [2]: minus; Relative Activity in the presence of S9Mix [2]: minus; Relative Activity in the absence of S9Mix [2]: minus |
| CN(C)c1ncc(/C=C/c2nc3ccc(OC(CO)CF)cc3o2)s1 (stereo not shown) [[^18F]THK-763] | 4.64 | 3.65 | 1.84 | 0.53 | 1.19 | 0.88 | 0.28 | 0.64 | 1.38 | have not found | excellent characteristics in washout from brain more than [^18F] BF-227 | – |
| OCC(CF)Oc1ccc2nc(/C=C/c3cnc(N4CCSCC4)s3)oc2c1 (stereo not shown) [THK-767, (E)-6-[(1-fluoromethyl-2-hydroxy)ethoxy]-2-[2-(2-thiomorpholinothiazol-5-yl)ethenyl]benzoxazole] | – | – | – | – | – | – | – | – | – | – | – | activity at 10 µM (Amyloid β protein 1-40; Congo red 0.1 μM, read-out: Binding Percentage of Compound in the presence of 0.1 μM CR): 60%; activity at 10 µM (Amyloid β protein 1-40; Congo red 0.3 μM, read-out: Binding Percentage of Compound in the presence of 0.3 μM CR): 29.9%; activity at 10 µM (Amyloid β protein 1-40; Congo red 1 μM, read-out: Binding Percentage of Compound in the presence of 1 μM CR): 15.9% |
| Cc1ccc2c(c1)sc(-c1ccc(N(C)C)cc1)[n+]2C.[Cl-] [Thioflavin T, reference compound] | – | – | – | – | – | – | – | – | – | – | – | Binding Percentage of Compound in the presence of 0.1 μM CR (Amyloid β protein 1-40; Congo red 0.1 μM): 49.4%; Binding Percentage of Compound in the presence of 0.3 μM CR (Amyloid β protein 1-40; Congo red 0.3 μM): 22.3%; Binding Percentage of Compound in the presence of 1 μM CR (Amyloid β protein 1-40; Congo red 1 μM): 9.3% |
| OCC(CF)Oc1ccc2nc(/C=C/c3cnc(N4CCOCC4)s3)oc2c1 (stereo not shown) [[^18F]THK-702] | 4.15 | 3.34 | 1.95 | 0.53 | 1.06 | 0.92 | 0.35 | 0.67 | 1.16 | have not found | excellent characteristics in washout from brain more than [^18F] BF-227 | – |
| CC1(C)c2ccccc2N2CCC(=O)NC21/C=C/c1ccc(N2CCOCC2)cc1 (stereo not shown) [THK-336] | – | – | – | – | – | – | – | – | – | – | – | Relative activity (mutagenicity) [2]: minus; Relative Activity in the presence of S9Mix [2]: minus; Relative Activity in the absence of S9Mix [2]: minus |
| CNc1ncc(/C=C/c2nc3ccc(OC(CO)CF)cc3o2)s1 (stereo not shown) [[^18F]THK-761] | 1.67 | 3.16 | 1.36 | 0.22 | 0.78 | 0.88 | 0.13 | 0.34 | 0.95 | have not found | excellent characteristics in washout from brain more than [^18F] BF-227 | – |
